≈ marks a conversion by molar mass, not a printed value.
Experiments:
Pseudomonas aeruginosa [1] = test: In vitro antibacterial activity against Pseudomonas aeruginosa 9027; assay type: functional
Staphylococcus aureus [2] = test: In vitro antibacterial activity against Staphylococcus aureus SG511; assay type: functional
Streptococcus pyogenes = test: In vitro antibacterial activity against Streptococcus pyogenes 308A; assay type: functional
Pseudomonas aeruginosa [3] = test: In vitro antibacterial activity against Pseudomonas aeruginosa 1592E; assay type: functional
Enterobacter cloacae = test: In vitro antibacterial activity against Enterobacter cloacae 1321E; assay type: functional
Staphylococcus aureus [4] = test: In vitro antibacterial activity against Staphylococcus aureus 285; assay type: functional
Salmonella typhimurium = test: In vitro antibacterial activity against Salmonella Typhimurium; assay type: functional, Salmonella enterica subsp. enterica serovar Typhimurium
Klebsiella aerogenes = test: In vitro antibacterial activity against Klebsiella aerogenes 1522E; assay type: functional
Escherichia coli [5] = test: In vitro antibacterial activity against Escherichia coli 1507E; assay type: functional
Pseudomonas aeruginosa [6] = test: In vitro antibacterial activity against Pseudomonas aeruginosa 1771M; assay type: functional
Staphylococcus aureus [7] = test: In vitro antibacterial activity against Staphylococcus aureus 503; assay type: functional
Escherichia coli [8] = test: In vitro antibacterial activity against Escherichia coli 078; assay type: functional
[9] = target: T1, Dipeptidase 1 (Sus scrofa) (UniProt P22412); test: Relative t1/2 hydrolysis to meropenem by partially purified porcine renal DHP-1; assay type: functional
T1 sequence (whole entry): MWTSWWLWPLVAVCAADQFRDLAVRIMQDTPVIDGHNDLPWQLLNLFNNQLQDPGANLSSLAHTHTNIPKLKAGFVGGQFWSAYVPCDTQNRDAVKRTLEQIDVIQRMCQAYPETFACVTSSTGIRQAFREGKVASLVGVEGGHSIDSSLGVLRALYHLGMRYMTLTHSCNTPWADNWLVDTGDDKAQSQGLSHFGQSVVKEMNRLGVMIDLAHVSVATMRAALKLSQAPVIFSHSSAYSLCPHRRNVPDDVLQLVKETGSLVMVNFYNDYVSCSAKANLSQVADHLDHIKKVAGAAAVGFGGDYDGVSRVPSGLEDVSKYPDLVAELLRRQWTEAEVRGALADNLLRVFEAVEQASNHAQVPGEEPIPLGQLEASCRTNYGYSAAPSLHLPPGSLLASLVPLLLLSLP

[10] = Pseudomonas aeruginosa, read-out: MIC
[11] = Staphylococcus aureus, read-out: MIC
[12] = Streptococcus pyogenes, read-out: MIC
[13] = Enterobacter cloacae, read-out: MIC
[14] = Salmonella enterica, read-out: MIC
[15] = Klebsiella aerogenes, read-out: MIC
[16] = Escherichia coli, read-out: MIC

MIC (Pseudomonas aeruginosa [1]; [10])	MIC (Staphylococcus aureus [2]; [11])	MIC (Streptococcus pyogenes; [12])	MIC (Pseudomonas aeruginosa [3]; [10])	MIC (Enterobacter cloacae; [13])	MIC (Staphylococcus aureus [4]; [11])	MIC (Salmonella typhimurium; [14])	MIC (Klebsiella aerogenes; [15])	MIC (Escherichia coli [5]; [16])	MIC (Pseudomonas aeruginosa [6]; [10])	MIC (Staphylococcus aureus [7]; [11])	MIC (Escherichia coli [8]; [16])	Relative t1/2 [9]	Compound	other results
													C[C@@H](O)[C@H]1C(=O)N2C(C(=O)O)=C(S[C@@H]3CN[C@H](C4CC(CO)=NO4)C3)[C@H](C)[C@H]12 (stereo in doubt; form 2) [listing 1 of 2 here]	MIC (Pseudomonas aeruginosa [1]): 0.391 µg/mL (≈ 0.95 µM); MIC (Staphylococcus aureus [2]): 0.098 µg/mL (≈ 0.238 µM); MIC (Streptococcus pyogenes): 0.013 µg/mL (≈ 0.0316 µM); MIC (Pseudomonas aeruginosa [3]): 0.391 µg/mL (≈ 0.95 µM); MIC (Enterobacter cloacae): 0.025 µg/mL (≈ 0.0608 µM); MIC (Staphylococcus aureus [4]): 0.098 µg/mL (≈ 0.238 µM); MIC (Salmonella typhimurium): 0.049 µg/mL (≈ 0.119 µM); MIC (Klebsiella aerogenes): 0.049 µg/mL (≈ 0.119 µM); MIC (Escherichia coli [5]): 0.025 µg/mL (≈ 0.0608 µM); MIC (Pseudomonas aeruginosa [6]): 0.195 µg/mL (≈ 0.474 µM); MIC (Staphylococcus aureus [7]): 0.049 µg/mL (≈ 0.119 µM); MIC (Escherichia coli [8]): 0.025 µg/mL (≈ 0.0608 µM)
0.391 µg/mL (≈ 0.984 µM)	0.098 µg/mL (≈ 0.247 µM)	0.007 µg/mL (≈ 0.0176 µM)	0.391 µg/mL (≈ 0.984 µM)	0.025 µg/mL (≈ 0.0629 µM)	0.098 µg/mL (≈ 0.247 µM)	0.098 µg/mL (≈ 0.247 µM)	0.098 µg/mL (≈ 0.247 µM)	0.049 µg/mL (≈ 0.123 µM)	0.195 µg/mL (≈ 0.491 µM)	0.049 µg/mL (≈ 0.123 µM)	0.098 µg/mL (≈ 0.247 µM)	1.27	C[C@@H](O)[C@H]1C(=O)N2C(C(=O)O)=C(S[C@@H]3CN[C@H](C4CCN(C)O4)C3)[C@H](C)[C@H]12 (some centres undefined)	
	0.098 µg/mL (≈ 0.239 µM)	0.013 µg/mL (≈ 0.0317 µM)	1.56 µg/mL (≈ 3.82 µM)	0.025 µg/mL (≈ 0.0611 µM)	0.098 µg/mL (≈ 0.239 µM)	0.049 µg/mL (≈ 0.12 µM)	0.049 µg/mL (≈ 0.12 µM)	0.025 µg/mL (≈ 0.0611 µM)	0.391 µg/mL (≈ 0.955 µM)	0.049 µg/mL (≈ 0.12 µM)	0.025 µg/mL (≈ 0.0611 µM)	0.8	C[C@@H](O)[C@H]1C(=O)N2C(C(=O)O)=C(S[C@@H]3CN[C@H](c4cc(CO)on4)C3)[C@H](C)[C@H]12	MIC (Pseudomonas aeruginosa [1]): 1.56 µg/mL (≈ 3.82 µM)
0.195 µg/mL	0.049 µg/mL	0.007 µg/mL	0.391 µg/mL	0.049 µg/mL	0.098 µg/mL	0.195 µg/mL	0.195 µg/mL	0.049 µg/mL	0.195 µg/mL	0.025 µg/mL	0.098 µg/mL	1.66	C[C@@H](O)[C@H]1C(=O)N2C(C(=O)O)=C(S[C@@H]3CN[C@H](C4CC[N+](C)(CC(N)=O)O4)C3)[C@H](C)[C@H]12.[Cl-] (some centres undefined)	
0.781 µg/mL (≈ 1.72 µM)	0.195 µg/mL (≈ 0.43 µM)	0.025 µg/mL (≈ 0.0551 µM)	0.781 µg/mL (≈ 1.72 µM)	0.025 µg/mL (≈ 0.0551 µM)	0.391 µg/mL (≈ 0.862 µM)	0.049 µg/mL (≈ 0.108 µM)	0.049 µg/mL (≈ 0.108 µM)	0.013 µg/mL (≈ 0.0287 µM)	0.391 µg/mL (≈ 0.862 µM)	0.098 µg/mL (≈ 0.216 µM)	0.013 µg/mL (≈ 0.0287 µM)	0.94	CCOC(=O)C1=NOC([C@@H]2C[C@H](SC3=C(C(=O)O)N4C(=O)[C@H]([C@@H](C)O)[C@H]4[C@H]3C)CN2)C1 (some centres undefined)	
0.391 µg/mL	0.098 µg/mL	0.013 µg/mL	0.391 µg/mL	0.098 µg/mL	0.195 µg/mL	0.195 µg/mL	0.195 µg/mL	0.098 µg/mL	0.195 µg/mL	0.049 µg/mL	0.195 µg/mL	1.5	C[C@@H](O)[C@H]1C(=O)N2C(C(=O)O)=C(S[C@@H]3CN[C@H](C4CC[N+](C)(C)O4)C3)[C@H](C)[C@H]12.[Cl-] (some centres undefined)	
												1.09	C[C@@H](O)[C@H]1C(=O)N2C(C(=O)O)=C(S[C@@H]3CN[C@H](C4CC(CO)=NO4)C3)[C@H](C)[C@H]12 (stereo in doubt; form 1) [listing 1 of 2 here]	
0.391 µg/mL (≈ 0.95 µM)	0.098 µg/mL (≈ 0.238 µM)	0.013 µg/mL (≈ 0.0316 µM)	0.391 µg/mL (≈ 0.95 µM)	0.049 µg/mL (≈ 0.119 µM)	0.098 µg/mL (≈ 0.238 µM)	0.098 µg/mL (≈ 0.238 µM)	0.098 µg/mL (≈ 0.238 µM)	0.049 µg/mL (≈ 0.119 µM)	0.098 µg/mL (≈ 0.238 µM)	0.049 µg/mL (≈ 0.119 µM)	0.049 µg/mL (≈ 0.119 µM)		C[C@@H](O)[C@H]1C(=O)N2C(C(=O)O)=C(S[C@@H]3CN[C@H](C4CC(CO)=NO4)C3)[C@H](C)[C@H]12 (stereo in doubt; form 1) [listing 2 of 2 here]	
												0.78	C[C@@H](O)[C@H]1C(=O)N2C(C(=O)O)=C(S[C@@H]3CN[C@H](C4CC(CO)=NO4)C3)[C@H](C)[C@H]12 (stereo in doubt; form 2) [listing 2 of 2 here]	

Compound	MIC (Pseudomonas aeruginosa [1]; [10])	MIC (Staphylococcus aureus [2]; [11])	MIC (Streptococcus pyogenes; [12])	MIC (Pseudomonas aeruginosa [3]; [10])	MIC (Enterobacter cloacae; [13])	MIC (Staphylococcus aureus [4]; [11])	MIC (Salmonella typhimurium; [14])	MIC (Klebsiella aerogenes; [15])	MIC (Escherichia coli [5]; [16])	MIC (Pseudomonas aeruginosa [6]; [10])	MIC (Staphylococcus aureus [7]; [11])	MIC (Escherichia coli [8]; [16])	Relative t1/2 [9]	other results
C[C@@H](O)[C@H]1C(=O)N2C(C(=O)O)=C(S[C@@H]3CN[C@H](C(=O)N(C)C)C3)[C@H](C)[C@H]12 [MEROPENEM]	0.195 µg/mL (≈ 0.509 µM)	0.195 µg/mL (≈ 0.509 µM)	0.013 µg/mL (≈ 0.0339 µM)	0.195 µg/mL (≈ 0.509 µM)	0.025 µg/mL (≈ 0.0652 µM)	0.195 µg/mL (≈ 0.509 µM)	0.049 µg/mL (≈ 0.128 µM)	0.049 µg/mL (≈ 0.128 µM)	0.025 µg/mL (≈ 0.0652 µM)	0.049 µg/mL (≈ 0.128 µM)	0.098 µg/mL (≈ 0.256 µM)	0.025 µg/mL (≈ 0.0652 µM)	1	

From ChEMBL document CHEMBL1132765, “Synthesis and antibacterial activity of new carbapenems containing isoxazole moiety” (2000)
